Columns and labels:
[1] = Number of insoluble particulate matter after adding calcium chloride to bisphosphonate solution; settings: calcium chloride solution added, 0-60 minutes
Procedure: Another 2 ml distilled water were added to this liquid.
Then 2 ml of an aqueous 10 mg/ml calcium chloride.2H2O solution were added to this liquid.

[2] = Int. J. Pharm., 1993; cited from earlier work
[3] = J. Pharm. Sci, 86, 1997; cited from earlier work
[4] = Oral administration of compound B tablets to beagles 30 minutes after feed; assay type: in vivo; settings: fed beagles
[5] = Number of insoluble particulate matter after adding magnesium chloride to compound B solution; settings: compound B solution with sodium bicarbonate, magnesium chloride solution added, 0-60 minutes, FIG. 7
Procedure: Another 2 ml distilled water were added to this solution and the number of insoluble particulate matter (2 μm or larger) was determined 0, 15, 30, and 60 minutes after addition using an insoluble particulate matter gauge (HIAC/ROYCO®, Pacific Scientific).
Two milliliters aqueous 10 mg/ml magnesium chloride.6H2O solution were added to this prepared liquid, and the number of insoluble particulate matter (2 μm or larger) was determined 0, 15, 30 and 60 minutes after addition by the same method as in Experiment 11.
Two milliliters aqueous 10 mg/ml magnesium chloride.6H2O were added to this prepared liquid, and the number of insoluble particulate matter (2 μm or larger) was determined 0, 15, 30 and 60 minutes after addition by the same method as in Experiment 11.

Structure (SMILES): CC(O)(P(=O)(O)O)P(=O)(O)O [compound D, (1-hydroxyethylidene)-1,1-bisphosphonate]
- number of insoluble particulate matter (2 μm or larger) ([1]; compound D solution with sodium bicarbonate, FIG. 5): increase in the number of insoluble particulate matter

Structure (SMILES): C[C@]12CC[C@H]3[C@@H](CCC4=CC(=O)CC[C@@]43C)[C@@H]1CC[C@@H]2O [testosterone]
- share of the barrier to absorption accounted for by the mucous layer [2]: 78%
- reduction of the diffusion coefficient by the mucous layer [3]: 50%

Structure (SMILES): O=P(O)(O)C(O)(Cc1cnc2ccccn12)P(=O)(O)O [compound B]
- Cmax and AUC when taken with food [4]: low Cmax and AUC
- number of insoluble particulate matter (2 μm or larger) [5]: increase in the number of insoluble particulate matter
- number of insoluble particulate matter (10 μm or larger) ([1]; compound B solution, FIG. 2): increase in the number of insoluble particulate matter

Structure (SMILES): O=P(O)(O)C(NC1CCCCCC1)P(=O)(O)O [compound C, [(cycloheptylamino)-methylene]bis-phosphonate]
- number of insoluble particulate matter (10 μm or larger) ([1]; compound C solution with sodium bicarbonate, FIG. 4): increase in the number of insoluble particulate matter
